PubChem BioAssay (NCI)
Where “and” joins values, the source holds several entries; their conditions need not be identical. Equal values may be shown once.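 Briefly, cells in 96-well plates were exposed to five compound concentrations for 48 h, and endpoints were estimated by linear interpolation. The concentration for 50% growth inhibition is given as GI50. Definition used: TGI = concentration required for complete inhibition of growth.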

Tested on: MDA-MB-468 breast
Assay: NCI tumour cell line growth inhibition, 48 h

O=C1c2ccccc2C(=O)c2c(/C=C\N3CCCCC3)ccnc21
GI50: 12900 nM
TGI: 26800 nM

CN1CCN(C(=O)COc2ccc(C34CC5CC(CC(C5)C3)C4)cc2)CC1
GI50: 9120 nM
TGI: 23100 nM

OC(c1cc(C(F)(F)F)nc2c(C(F)(F)F)cccc12)C1CCCCN1 (stereo not drawn)
GI50: 1630 nM
TGI: 3370 nM

Cc1ccc(NC2=C3CCCCC3OC2=O)cc1 (stereo not drawn)
GI50: 21900 nM
TGI: > 100000 nM

NC(=S)N/N=C1\c2cc(Cl)ccc2-c2c1cc(Cl)cc2[N+](=O)[O-]
GI50: 3070 nM
TGI: 9030 nM

CC(C)[C@@H]1NC(=O)[C@]2(C)CSC(=N2)c2ccnc(c2)CNC(=O)C[C@@H](/C=C/CCS)OC1=O
GI50: 569 nM

O=[N+]([O-])c1cc([N+](=O)[O-])c(C(F)(F)F)cc1NN=C(c1ccc(O)cc1)c1ccc(O)cc1
GI50: 3210 nM
TGI: 15400 nM

C#CC(=O)N(c1ccc(OC)cc1OC)C(C(=O)NCC(=O)OCC)c1cccs1 (stereo not drawn)
GI50: 316 nM
TGI: 1170 nM

CC(=C(c1ccc(OCCN2CCCCC2)cc1)c1ccc(OCCN2CCCCC2)cc1)c1ccc(Cl)cc1
GI50: 402 nM
TGI: 809 nM

COc1ccc(C2c3cc4c(cc3OC3(OC)COC(=O)C23)OCO4)c(OC)c1 (stereo not drawn)
GI50: 9240 nM
TGI: > 100000 nM

CCCCCCOc1ccc(/C=N/Nc2cc(C)nc3ccc(Cl)cc23)cc1
GI50: 1650 nM
TGI: 3130 nM

CC(C)(C)[Si](C)(C)OC1[C@@H](O[Si](C)(C)C(C)(C)C)[C@@H](CNC(=O)NC(=O)C(F)(F)F)O[C@H]1n1cnc2c(NC(=O)Nc3ccccc3)ncnc21 (stereo partly drawn)
GI50: 2180 nM
TGI: 9160 nM

CNC(=O)c1cc(Oc2ccc3nc(NC(=O)c4ccc(CN5CCCN(C)CC5)c(C(F)(F)F)c4)sc3c2)ccn1
GI50: 1190 nM
TGI: 2590 nM

Nc1nc2[nH]cc(CCc3ccc(C(=O)N[C@@H](CCC(=O)O)C(=O)O)cc3)c2c(=O)[nH]1
GI50: 2570 nM
TGI: > 100000 nM

O=C(Nc1cccc(C(F)(F)F)c1)Nc1cccc(C(F)(F)F)c1
GI50: 675 nM
TGI: 3170 nM

O=C(Nc1nn2c(-c3cc(C(F)(F)F)cc(C(F)(F)F)c3)nnc2s1)C1CCCC1
GI50: 356 nM
TGI: 4350 nM

Cc1ccc(S(=O)(=O)N2C3C=CC(C3)[C@@H]2C(Cl)(Cl)Cl)cc1 (stereo partly drawn)
GI50: 6320 nM
TGI: 33100 nM

c1ccc(Nc2ncc(-c3ccccc3)o2)cc1
GI50: 8410 nM
TGI: > 25000 nM

C#Cc1cccc(Nc2nc3cc([N+](=O)[O-])ccc3nc2Nc2ccc(O)cc2)c1
GI50: 1430 nM
TGI: 3260 nM

NCCNCCNCCN
GI50: > 100000 nM
TGI: > 100000 nM

COc1ccc(Cn2c(Br)c3c(c2Br)-c2nc(N)sc2CC3)cc1
GI50: 1900 nM
TGI: 14000 nM

NC(=S)N/N=C\c1nccc2c(C(F)(F)F)cccc12
GI50: 199 nM
TGI: 612 nM

N=C(N)c1ccc(OCCCCCCCCCCOc2ccc(C(=N)N)cc2)cc1
GI50: 414 nM
TGI: 1800 nM

CCNC(=O)C#Cc1ccc2c(C(=Nc3ccc(CN(C)C)cc3)c3ccccc3)c(O)[nH]c2c1
GI50: 62.1 nM
TGI: 914 nM

CCOC(=O)n1cc(C2=C(c3ccc(OC)c(OC)c3)COC2=O)c2ccccc21
GI50: 35.7 nM
TGI: > 100000 nM

CC[C@@H](c1ccc(O)c(O)c1)[C@@H](CC)c1ccc(O)c(O)c1
GI50: 2090 nM
TGI: 5510 nM

CCCn1cnc2c(c1=N)C(c1ccc(F)cc1)c1sc3c(CC)cccc3c1O2 (stereo not drawn)
GI50: 350 nM
TGI: > 100000 nM

O=C1NC(=NCc2ccccc2)S/C1=C\c1ccc2ncccc2c1
GI50: > 16200 nM
TGI: > 25000 nM

c1ccc(-c2n(Cc3ccc4ccccc4n3)cc[n+]2Cc2ccc3ccccc3c2)cc1
GI50: 222 nM
TGI: 1090 nM

COc1ccccc1NC(=O)c1cc2cc(Br)ccc2cc1O
GI50: 2790 nM
TGI: 7870 nM

Cc1ccc(-c2nc(N3CCNCC3)c3oc(-c4ccc(C)cc4)nc3n2)cc1
GI50: 3290 nM
TGI: > 21800 nM

C=C1C[C@H](O)[C@H](Br)C(C)(C)[C@@]12CCC(C)=C(Cl)C2
GI50: 36.9 nM
TGI: 397 nM

O=C1OCC2=C1C(c1cccc(Br)c1)c1cc3c(cc1N2CCO)OCCO3 (stereo not drawn)
GI50: 25.8 nM
TGI: 181 nM

Cc1cc(Nc2ccc(C)c(Cl)c2)n2nc(C(F)(F)F)nc2n1
GI50: 18700 nM
TGI: 61600 nM

CCN1C(=O)N(CC)C2SC(N/N=C/C=C/c3ccccc3OC)=NC21 (stereo not drawn)
GI50: 326 nM
TGI: 48900 nM

COc1cc(-c2nn(-c3cccc(NC(=O)c4ccccc4)c3)cc2-c2ccncc2)ccc1Cl
GI50: 349 nM
TGI: 3420 nM

CCCCCCCCCCSC(=N)N (tested in a mixture with another compound)
GI50: 2100 nM
TGI: 4860 nM

COc1c2ccccc2c(OC)c2[nH]c(=O)ccc12
GI50: 4770 nM
TGI: > 91700 nM

CC(=O)N[C@@H](Cc1ccc(OP(=O)(O)O)cc1)C(=O)N[C@H]1CCC(=O)N2CCC[C@@H](C(=O)Nc3cccc4ccccc34)N2C1=O
GI50: > 25000 nM
TGI: > 25000 nM

COCCn1cc(-c2nc(-c3cc4cccnc4[nH]3)cs2)c2cc(OC)ccc21
GI50: 31.7 nM
TGI: 192 nM

C=CC(=O)Nc1cc(Nc2nccc(-c3cn(C)c4ccccc34)n2)c(OC)cc1N(C)CCN(C)C
GI50: 27.1 nM and 47.2 nM
TGI: 332 nM

COC(=O)/C=C/c1cc(OC(C)=O)c2c(c1)[C@@H](C(=O)OC)[C@H](c1ccc(OC(C)=O)c(OC(C)=O)c1)O2
GI50: 380 nM
TGI: 13700 nM

COc1ccc2ncnc(Nc3ccc(OCc4ccccc4)cc3)c2c1
GI50: 2770 nM
TGI: 9080 nM

C=C1C(=O)O[C@H]2[C@H]1CC/C(CNC(=O)c1cc3ccccc3[nH]1)=C\CC[C@@]1(C)O[C@@H]21
GI50: 1050 nM
TGI: 3600 nM

COc1cc(/C=C2\CN(S(=O)(=O)c3ccc(C)cc3)C/C(=C\c3cc(CN4CCCC4)c(O)c(OC)c3)C2=O)cc(CN2CCCC2)c1O
GI50: 1150 nM
TGI: 2650 nM

CN(C)CC(O)c1ccc(/C=C/c2ccc(Cl)cc2)cc1 (stereo not drawn)
GI50: 1750 nM
TGI: 3830 nM

CCN(CC)c1ccc(/C=N/NC(=O)c2ccc(S(N)(=O)=O)cc2)c(O)c1
GI50: 258 nM
TGI: 1140 nM

COc1cc(-c2nc3sccn3c2-c2ccnc(NCCNS(=O)(=O)c3ccc(F)cc3)n2)ccc1F
GI50: 2720 nM
TGI: > 100000 nM

COC(=O)[C@]12CC[C@@H](C)[C@H](C)[C@@H]1C1=CC[C@@H]3[C@@]4(C)C[C@@H](O)[C@H](O)[C@@](C)(CO)[C@@H]4[C@H](O)C[C@@]3(C)[C@]1(C)CC2
GI50: 10500 nM
TGI: 24800 nM

CC1(C)[C@@H](NOCCCN)CC[C@]2(C)[C@H]3C(=O)C=C4[C@@H]5C[C@](C)(C(=O)O)CC[C@]5(C)CC[C@@]4(C)[C@]3(C)CC[C@@H]12
GI50: 2360 nM
TGI: 5450 nM

COc1ccc(C(c2cc(OC)c(OC)c(OC)c2)n2cncn2)cc1O (stereo not drawn)
GI50: 371 nM
TGI: > 100000 nM

CN1CCN(c2ccc(Nc3ncc(Cl)c(NC[C@@H]4CCCO4)n3)cc2)CC1
GI50: 2180 nM
TGI: 6640 nM
